This is an account of results in PubChem BioAssay AID1259407 (Chemical Carcinogenesis Research Information System (CCRIS), 2018).

Activity calls are given as the source filed them. How the calls were made is not given here.

This data set relates to CCRIS mutagenicity, Ames/micronucleus/aberration tests. In words: CCRIS mutagenicity studies.
Setting [1] is: Test System: AMES SALMONELLA TYPHIMURIUM, Strain/Indicator: TA100, Metabolic Activation: NONE, Method: PREINCUBATION
Setting [2] is: Test System: AMES SALMONELLA TYPHIMURIUM, Strain/Indicator: TA1535, Metabolic Activation: NONE, Method: PREINCUBATION
Where [3] appears, read: Test System: AMES SALMONELLA TYPHIMURIUM, Strain/Indicator: TA98, Metabolic Activation: NONE, Method: STANDARD PLATE.
[4] abbreviates: Test System: AMES SALMONELLA TYPHIMURIUM, Strain/Indicator: TA98, Metabolic Activation: RAT, LIVER, S-9, AROCLOR 1254, Method: STANDARD PLATE.
The mark [5] stands for this setting: Test System: AMES SALMONELLA TYPHIMURIUM, Strain/Indicator: TA100, Metabolic Activation: NONE, Method: STANDARD PLATE.
Where [6] appears, read: Test System: AMES SALMONELLA TYPHIMURIUM, Strain/Indicator: TA100, Metabolic Activation: RAT, LIVER, S-9, AROCLOR 1254, Method: STANDARD PLATE.
Setting [7] is: Test System: AMES SALMONELLA TYPHIMURIUM, Strain/Indicator: TA1535, Metabolic Activation: NONE, Method: STANDARD PLATE.

`CCCCCCCCn1sccc1=O`: the mutagenic call reads like this: (Test System: AMES SALMONELLA TYPHIMURIUM, Strain/Indicator: TA97, Metabolic Activation: HAMSTER, LIVER, S-9, AROCLOR 1254 (10%), Method: PREINCUBATION) “inactive; negative”; (Test System: AMES SALMONELLA TYPHIMURIUM, Strain/Indicator: TA97, Metabolic Activation: HAMSTER, LIVER, S-9, AROCLOR 1254 (30%), Method: PREINCUBATION) “inactive; negative”; (Test System: AMES SALMONELLA TYPHIMURIUM, Strain/Indicator: TA97, Metabolic Activation: NONE, Method: PREINCUBATION) “inactive; negative”; (Test System: AMES SALMONELLA TYPHIMURIUM, Strain/Indicator: TA97, Metabolic Activation: RAT, LIVER, S-9, AROCLOR 1254 (10 OR 30%), Method: PREINCUBATION) “inactive; negative”; (Test System: AMES SALMONELLA TYPHIMURIUM, Strain/Indicator: TA98, Metabolic Activation: HAMSTER, LIVER, S-9, AROCLOR 1254 (10%), Method: PREINCUBATION) “inactive; negative”; (Test System: AMES SALMONELLA TYPHIMURIUM, Strain/Indicator: TA98, Metabolic Activation: HAMSTER, LIVER, S-9, AROCLOR 1254 (30%), Method: PREINCUBATION) “inactive; negative”. Also, the mutagenic call reads like this: (Test System: AMES SALMONELLA TYPHIMURIUM, Strain/Indicator: TA98, Metabolic Activation: NONE, Method: PREINCUBATION) “inactive; negative”; (Test System: AMES SALMONELLA TYPHIMURIUM, Strain/Indicator: TA98, Metabolic Activation: RAT, LIVER, S-9, AROCLOR 1254 (10 OR 30%), Method: PREINCUBATION) “inactive; negative”; (Test System: AMES SALMONELLA TYPHIMURIUM, Strain/Indicator: TA100, Metabolic Activation: HAMSTER, LIVER, S-9, AROCLOR 1254 (10%), Method: PREINCUBATION) “inactive; negative”; (Test System: AMES SALMONELLA TYPHIMURIUM, Strain/Indicator: TA100, Metabolic Activation: HAMSTER, LIVER, S-9, AROCLOR 1254 (30%), Method: PREINCUBATION) “inactive; negative”; under setting [1], “inactive; negative”; (Test System: AMES SALMONELLA TYPHIMURIUM, Strain/Indicator: TA100, Metabolic Activation: RAT, LIVER, S-9, AROCLOR 1254 (10 OR 30%), Method: PREINCUBATION) “inactive; negative”. Besides, the mutagenic call (Test System: AMES SALMONELLA TYPHIMURIUM, Strain/Indicator: TA1535, Metabolic Activation: HAMSTER, LIVER, S-9, AROCLOR 1254 (10%), Method: PREINCUBATION) was “inactive; negative”; the mutagenic call (Test System: AMES SALMONELLA TYPHIMURIUM, Strain/Indicator: TA1535, Metabolic Activation: HAMSTER, LIVER, S-9, AROCLOR 1254 (30%), Method: PREINCUBATION) was “inactive; negative”; the mutagenic call under setting [2] is “inactive; negative”; the mutagenic call (Test System: AMES SALMONELLA TYPHIMURIUM, Strain/Indicator: TA1535, Metabolic Activation: RAT, LIVER, S-9, AROCLOR 1254 (10%), Method: PREINCUBATION) is “inactive; negative”; the mutagenic call (Test System: AMES SALMONELLA TYPHIMURIUM, Strain/Indicator: TA1535, Metabolic Activation: RAT, LIVER, S-9, AROCLOR 1254 (30%), Method: PREINCUBATION) is “inactive; negative”; the mutagenic call (Test System: AMES SALMONELLA TYPHIMURIUM, Strain/Indicator: TA1537, Metabolic Activation: HAMSTER, LIVER, S-9, AROCLOR 1254 (30%), Method: PREINCUBATION) is “inactive; negative”. The mutagenic call reads like this: (Test System: AMES SALMONELLA TYPHIMURIUM, Strain/Indicator: TA1537, Metabolic Activation: NONE, Method: PREINCUBATION) “inactive; negative”; (Test System: AMES SALMONELLA TYPHIMURIUM, Strain/Indicator: TA1537, Metabolic Activation: RAT, LIVER, S-9, AROCLOR 1254 (30%), Method: PREINCUBATION) “inactive; negative”.
Regarding `O=c1c2c(O)cccc2oc2c3c(cc(O)c12)O[C@H]1OC=C[C@@H]31`, the mutagenic call was “inactive; negative” (Test System: AMES SALMONELLA TYPHIMURIUM, Strain/Indicator: TA98, Metabolic Activation: RAT, LIVER, S-9, PHENOBARBITAL, Method: STANDARD PLATE) and “active; positive” (Test System: AMES SALMONELLA TYPHIMURIUM, Strain/Indicator: TA100, Metabolic Activation: RAT, LIVER, S-9, PHENOBARBITAL, Method: STANDARD PLATE).
In the case of `CCCCOC(=O)c1cccc2cccnc12`, the mutagenic call is “inactive; negative” under setting [3]; “inactive; negative” under setting [4]; “inactive; negative” under setting [5]; “inactive; negative” under setting [6]; “inactive; negative” under setting [7]; “inactive; negative” (Test System: AMES SALMONELLA TYPHIMURIUM, Strain/Indicator: TA1535, Metabolic Activation: RAT, LIVER, S-9, AROCLOR 1254, Method: STANDARD PLATE). Further, the mutagenic call (Test System: AMES SALMONELLA TYPHIMURIUM, Strain/Indicator: TA1537, Metabolic Activation: NONE, Method: STANDARD PLATE) is “inactive; negative” and the mutagenic call (Test System: AMES SALMONELLA TYPHIMURIUM, Strain/Indicator: TA1537, Metabolic Activation: RAT, LIVER, S-9, AROCLOR 1254, Method: STANDARD PLATE) was “inactive; negative”.
On to `CCOC(=O)c1[nH]c2ccccc2c1N=Cc1ccc(C)cc1`, for which the mutagenic call by setting is: (Test System: AMES SALMONELLA TYPHIMURIUM, Strain/Indicator: TA97, Metabolic Activation: NONE, Method: STANDARD PLATE) “inactive; negative”; (Test System: AMES SALMONELLA TYPHIMURIUM, Strain/Indicator: TA97, Metabolic Activation: RAT, LIVER, S-9, AROCLOR 1254, Method: STANDARD PLATE) “inactive; negative”; under setting [3], “inactive; negative”; under setting [4], “inactive; negative”; under setting [5], “inactive; negative”; under setting [6], “inactive; negative”. For the same compound, the mutagenic call runs as follows: (Test System: AMES SALMONELLA TYPHIMURIUM, Strain/Indicator: TA102, Metabolic Activation: NONE, Method: STANDARD PLATE) “inactive; negative”; (Test System: AMES SALMONELLA TYPHIMURIUM, Strain/Indicator: TA102, Metabolic Activation: RAT, LIVER, S-9, AROCLOR 1254, Method: STANDARD PLATE) “inactive; negative”.
In the case of `CCCCN(N=O)C(CCC)OC(C)=O` (configuration not stated), the mutagenic call (Test System: UDS RAT UROTHELIAL CELLS, Strain/Indicator: THY INCORP, Metabolic Activation: NONE) is “active; positive”.
Consider `CCOC(=O)c1cc2cc3c4c(c2oc1=O)CCCN4CCC3`, for which the mutagenic call (Test System: AMES SALMONELLA TYPHIMURIUM, Strain/Indicator: TA1538, Metabolic Activation: NONE, Method: STANDARD PLATE) is “inactive; negative” and the mutagenic call (Test System: AMES SALMONELLA TYPHIMURIUM, Strain/Indicator: TA1538, Metabolic Activation: RAT, LIVER, S-9, AROCLOR 1254, Method: STANDARD PLATE) was “inactive; negative”.
As to `c1ccc(CCC2CO2)cc1` (configuration not stated), the mutagenic call reads like this: under setting [1], “active; positive”; under setting [5], “active; positive”; under setting [2], “active; positive”; under setting [7], “active; positive”.
Consider `Clc1ccc(-c2nc3ccccc3o2)cc1`, for which the mutagenic call was “inactive; negative” under setting [3] and “inactive; negative” (Test System: AMES SALMONELLA TYPHIMURIUM, Strain/Indicator: TA98, Metabolic Activation: S-9, Method: STANDARD PLATE).
